Measured values published in patent US20250179049A1, “SALTS OF HETEROCYCLIC INHIBITORS OF MONOCARBOXYLATE TRANSPORTER 4 FOR THE TREATMENT OF DISEASE” (Vettore, LLC, priority 2022, published 2025).
Where a name gives a salt, the structure may show the parent alone. Read-outs that look alike come from different tables or passages of the source.

Assays:
[1] = Rat pharmacokinetics, oral gavage; assay type: in vivo, Sprague-Dawley rats; design: AUClast/D: unit not given here; conditions: for MRT inf: read-out: MRTInf—obs; for AUC(0-t) / Cmax / Tmax / AUC0-24 salt/ AUC0-24 free/ / AUC0-24: rat
Procedure: Groups, Dosing, and Collection. […] Three rats per group were perorally administered 20, 60, or 200 mg Compound 1 free acid or 25, 75, or 250 mg in 0.5% methylcellulose in Saline for a final concentration of 2, 6, or 20 mg/mL Compound 1 free acid or 2.5, 7.5, or […]. Plasma was collected at 5 min, 15 min, 30 min, 1 hour, 2 hour, 4 hour, 6 hour, 8 hour, and 24 hour post dose via jugular vein.
Stock and Dose Prep. Stock solutions were prepared by dissolving 2.47 mg of Compound 1 (free acid) in 2.470 mL DMSO with vortexing to obtain 1 mg/mL solution of Compound 1 (free acid), or 2.09 mg of Compound 1 (Tris salt) in […] DMSO with vortexing to obtain 1 mg/mL solution of Compound 1 (Tris salt). Dosing solutions were prepared by vortexing/sonicating the following solids in solvent:
LC MS-MS Analysis. Liquid Chromatography with tandem mass spectrometry was used to determine plasma concentrations of Compound 1 Free Acid and Compound 1 Tris Salt in plasma samples collected at prescribed time points.
Appropriate serial concentrations of working solutions were achieved by diluting stock solution of analyte with 50% acetonitrile in water solution. Five μL of working solutions (10, 20, 50, 100, 500, 1000, 5000, 8000, 10000 ng/mL) were added to 50 μL of the blank male SD Rat plasma to achieve calibration standards of 1˜1000 ng/ml (1, 2, 5, 10, 50, 100, 500, 800, 1000 ng/mL) in a total volume of 55 μL. Five quality control (QC) samples at 2 ng/mL, 5 ng/mL, 10 ng/mL, 50 ng/mL and 800 ng/mL for plasma were prepared independently of those used for the calibration curves. These QC samples were prepared on the day of analysis in the same way as calibration standards. 55 μL standards, 55 μL QC samples and 55 μL unknown samples (50 μL plasma/blood with 5 μL blank solution) were added to 200 μL of methanol containing internal standard (dexamethasone) mixture for precipitating protein respectively, and vortexed for 30 seconds. After centrifugation at 4° C. and 4000 rpm for 15 minutes. The supernatant was diluted with water with a ratio of 1:2. 2 μL of the supernatant was injected into the LC/MS/MS system for quantitative analysis.
Instrumentation included HALO 90A C18 2.7 μm 2.1×50 mm HPLC column, a Prominence degasser DGU-20A5R(C), liquid chromatograph Shimadzu LC-30AD with communications bus module CBM-20A and Auto SIL-20AC HT; and an AB Sciex Triple Quad 5500 LC/MS/MS instrument.

in vivo = test: in vivo; design: species or system beagle dogs; conditions: both sexes, beagle, dog, 150 mg/kg
Procedure: Compound 1 was administered to beagle dogs by oral gavage in a range finding study at doses of 30, 79, 240, or 790 mg/kg. […] Compound 1 was administered at doses of 10, 50, and 150 mg/kg/day in the pivotal repeat dose toxicity studies for 28 days.
Compound 1 tris salt was evaluated for safety in 7- and 28-day studies in rats and dogs. […] The NOAELs for this rat study were 120 mg/kg/day for males and 75 mg/kg/day for females. […] The NOAEL determined in the 28-day dog GLP study was 150 mg/kg/day. These correspond to human equivalent doses (HEDs) of: • Rat: 75 mg/kg×0.16=12 mg/kg • Dog: 150 mg/kg×0.54=81 mg/kg

[2] = Sprague-Dawley, plasma, rat PO 25 mg/kg, female, mean
[3] = Sprague-Dawley, plasma, rat PO 25 mg/kg, male, mean
[4] = Sprague-Dawley, plasma, rat PO 75 mg/kg, female, mean
[5] = Sprague-Dawley, plasma, rat PO 75 mg/kg, male, mean
[6] = Sprague-Dawley, plasma, rat PO 250 mg/kg, female, mean
[7] = Sprague-Dawley, plasma, rat PO 250 mg/kg, male, mean
[8] = Female, PO/20 mg/kg, Mean ± SD, 20 mg/kg
[9] = Female, PO/60 mg/kg, Mean ± SD, 60 mg/kg
[10] = Female, PO/200 mg/kg, Mean ± SD, 200 mg/kg

Structure (SMILES): CC(C)(OCc1cc(-c2cccc(OC3CCC3)c2)n(-c2ccccc2N2CCC2)n1)C(=O)O [Compound 1 tris salt, tris salt of 2-((1-(2-(azetidin-1-yl)phenyl)-5-(3-cyclobutoxyphenyl)-1H-pyrazol-3-yl)methoxy)-2-methylpropanoic acid]
- AUC(0-inf) [1, 2]: 1040 µg·h/mL
- half-life [1, 2]: 392 min
- MRT inf [1, 2]: 9.9 h
- AUC(0-inf) [1, 3]: 357 µg·h/mL
- half-life [1, 3]: 194 min
- MRT inf [1, 3]: 6.1 h
- AUC(0-inf) [1, 4]: 3270 µg·h/mL
- half-life [1, 4]: 576 min
- MRT inf [1, 4]: 14.7 h
- AUC(0-inf) [1, 5]: 910 µg·h/mL
- half-life [1, 5]: 175 min
- MRT inf [1, 5]: 6.03 h
- AUC(0-inf) [1, 6]: 16300 µg·h/mL
- half-life [1, 6]: 2430 min
- MRT inf [1, 6]: 62 h
- AUC(0-inf) [1, 7]: 2890 µg·h/mL
- half-life [1, 7]: 732 min
- MRT inf [1, 7]: 18.6 h
- AUC(0-t) ([1]; female, Sprague-Dawley, plasma, po, 25 mg/kg, rat PO 25 mg/kg, female, mean, read-out: AUClast): 947 µg·h/mL
- Cmax ([1]; female, Sprague-Dawley, plasma, po, 25 mg/kg, rat PO 25 mg/kg, female, mean, read-out: Cmax): 68.6 µg/mL
- Tmax ([1]; female, Sprague-Dawley, plasma, po, 25 mg/kg, rat PO 25 mg/kg, female, mean, read-out: Tmax): 6 h
- AUC(0-t) ([1]; female, Sprague-Dawley, plasma, po, 75 mg/kg, rat PO 75 mg/kg, female, mean, read-out: AUClast): 2540 µg·h/mL
- Cmax ([1]; female, Sprague-Dawley, plasma, po, 75 mg/kg, rat PO 75 mg/kg, female, mean, read-out: Cmax): 171 µg/mL
- Tmax ([1]; female, Sprague-Dawley, plasma, po, 75 mg/kg, rat PO 75 mg/kg, female, mean, read-out: Tmax): 5.33 h
- AUC(0-t) ([1]; female, Sprague-Dawley, plasma, po, 250 mg/kg, rat PO 250 mg/kg, female, mean, read-out: AUClast): 4470 µg·h/mL
- Cmax ([1]; female, Sprague-Dawley, plasma, po, 250 mg/kg, rat PO 250 mg/kg, female, mean, read-out: Cmax): 223 µg/mL
- Tmax ([1]; female, Sprague-Dawley, plasma, po, 250 mg/kg, rat PO 250 mg/kg, female, mean, read-out: Tmax): 6.67 h
- Total drug exposure across time (AUClast and AUCInf) compared with free acid ([1]; male and female rats): higher
- AUC(0-t) ([1]; male, Sprague-Dawley, plasma, po, 25 mg/kg, rat PO 25 mg/kg, male, mean, read-out: AUClast): 352 µg·h/mL
- Cmax ([1]; male, Sprague-Dawley, plasma, po, 25 mg/kg, rat PO 25 mg/kg, male, mean, read-out: Cmax): 44.2 µg/mL
- Tmax ([1]; male, Sprague-Dawley, plasma, po, 25 mg/kg, rat PO 25 mg/kg, male, mean, read-out: Tmax): 2.86 h
- AUC(0-t) ([1]; male, Sprague-Dawley, plasma, po, 25 mg/kg, Male, PO/25 mg/kg, Mean ± SD, read-out: AUC0-24): 352 µg·h/mL
- Cmax ([1]; male, Sprague-Dawley, plasma, po, 25 mg/kg, Male, PO/25 mg/kg, Mean ± SD, read-out: Cmax): 44.2 µg/mL
- Tmax ([1]; male, Sprague-Dawley, plasma, po, 25 mg/kg, Male, PO/25 mg/kg, Mean ± SD, read-out: Tmax): 2.9 ± 4.5 h
- AUC(0-t) ([1]; male, Sprague-Dawley, plasma, po, 75 mg/kg, rat PO 75 mg/kg, male, mean, read-out: AUClast): 906 µg·h/mL
- Cmax ([1]; male, Sprague-Dawley, plasma, po, 75 mg/kg, rat PO 75 mg/kg, male, mean, read-out: Cmax): 92.3 µg/mL
- Tmax ([1]; male, Sprague-Dawley, plasma, po, 75 mg/kg, rat PO 75 mg/kg, male, mean, read-out: Tmax): 4 h
- AUC(0-t) ([1]; male, Sprague-Dawley, plasma, po, 75 mg/kg, Male, PO/75 mg/kg, Mean ± SD, read-out: AUC0-24): 906 µg·h/mL
- Cmax ([1]; male, Sprague-Dawley, plasma, po, 75 mg/kg, Male, PO/75 mg/kg, Mean ± SD, read-out: Cmax): 92.3 µg/mL
- Tmax ([1]; male, Sprague-Dawley, plasma, po, 75 mg/kg, Male, PO/75 mg/kg, Mean ± SD, read-out: Tmax): 4 ± 2 h
- AUC(0-t) ([1]; male, Sprague-Dawley, plasma, po, 250 mg/kg, rat PO 250 mg/kg, male, mean, read-out: AUClast): 2090 µg·h/mL
- Cmax ([1]; male, Sprague-Dawley, plasma, po, 250 mg/kg, rat PO 250 mg/kg, male, mean, read-out: Cmax): 144 µg/mL
- Tmax ([1]; male, Sprague-Dawley, plasma, po, 250 mg/kg, rat PO 250 mg/kg, male, mean, read-out: Tmax): 5.33 h
- AUC(0-t) ([1]; male, Sprague-Dawley, plasma, po, 250 mg/kg, Male, PO/250 mg/kg, Mean ± SD, read-out: AUC0-24): 2090 µg·h/mL
- Cmax ([1]; male, Sprague-Dawley, plasma, po, 250 mg/kg, Male, PO/250 mg/kg, Mean ± SD, read-out: Cmax): 144 µg/mL
- Tmax ([1]; male, Sprague-Dawley, plasma, po, 250 mg/kg, Male, PO/250 mg/kg, Mean ± SD, read-out: Tmax): 5.3 ± 1.1 h
- AUClast/D ([1]; rat PO 25 mg/kg, female, mean): 37897
- AUC—% Extrap—obs ([1]; rat PO 25 mg/kg, female, mean): 9%
- AUClast/D ([1]; rat PO 25 mg/kg, male, mean): 14077
- AUC—% Extrap—obs ([1]; rat PO 25 mg/kg, male, mean): 1.28%
- AUClast/D ([1]; rat PO 75 mg/kg, female, mean): 33882
- AUC—% Extrap—obs ([1]; rat PO 75 mg/kg, female, mean): 18.5%
- AUClast/D ([1]; rat PO 75 mg/kg, male, mean): 12078
- AUC—% Extrap—obs ([1]; rat PO 75 mg/kg, male, mean): 0.473%
- AUClast/D ([1]; rat PO 250 mg/kg, female, mean): 17869
- AUC—% Extrap—obs ([1]; rat PO 250 mg/kg, female, mean): 59.9%
- AUClast/D ([1]; rat PO 250 mg/kg, male, mean): 8340
- AUC—% Extrap—obs ([1]; rat PO 250 mg/kg, male, mean): 26.5%
- AUC0-24 salt/ AUC0-24 free/ ([1]; Female, PO/20 mg/kg): 1.07
- AUC0-24 [1, 8]: 947,000 ± 135,000 ng h/mL
- Cmax [1, 8]: 68,600 ± 6400 ng/mL
- AUC0-24 salt/ AUC0-24 free/ ([1]; Female, PO/60 mg/kg): 1.78
- AUC0-24 [1, 9]: 2,540,000 ± 503,000 ng h/mL
- Cmax [1, 9]: 171,000 ± 11,600 ng/mL
- AUC0-24 salt/ AUC0-24 free/ ([1]; Female, PO/200 mg/kg): 1.57
- AUC0-24 [1, 10]: 4,470,000 ± 705,000 ng h/mL
- Cmax [1, 10]: 223,000 ± 29,900 ng/mL
- Tmax [1, 10]: 6.7 ± 1.1 h
- AUC0-24 salt/ AUC0-24 free/ ([1]; Male, PO/25 mg/kg): 2.11
- AUC0-24 salt/ AUC0-24 free/ ([1]; Male, PO/75 mg/kg): 2.03
- AUC0-24 salt/ AUC0-24 free/ ([1]; Male, PO/250 mg/kg): 1.89
- Human equivalent dose of NOAEL at 28 days (in vivo): 81 mg/kg
